Data set [1] in a line: Seven-day dose-range finding study in rats. Type of data set: in vivo. The settings on record: seven days.
The subject of the next data set is PC-3. Kind of data set: Growth inhibition, neutral red assay, PC-3. In kind it is cell-based, human. The settings on record: free base, five days. On the procedure: (§1) Compound I's activity is not confined to activity against colon cancer cell lines or animal models of colon cancer. It has a broad range of anti-neoplastic effects in various neoplastic cell lines. Various types of human cancer cell lines were propagated under sterile conditions in RPMI 1640 medium with 10% fetal bovine serum, […] L-glutamine and sodium bicarbonate. To determine growth inhibitory effects of Compound I, cells were seeded in 96-well plates at a density of 1000 cells per well. Twenty-four hours after plating, the cells were dosed with various concentrations of the free base of Compound I solubilized in DMSO (final concentration 0.1%). The effect of the drug on tumor cell growth was determined using the neutral red cytotoxicity assay following five days of continuous treatment. Neutral red is a dye that is selectively taken up by viable cells by an ATP-dependent transport mechanism.

Another data set in a line: 28-day study in rats. In kind it is in vivo.
A short description of data set [2]: Single, escalating dose human safety study. Type of data set: in vivo. As to conditions: oral.
The subject of data set [3] is LNCaP prostate tumor cell line. Kind of data set: Histone-associated DNA fragmentation in LNCaP cells. Type of data set: cell-based. The settings on record: 50 μM free base, up to 4 days. Here is the method:
(§2) The androgen-sensitive prostate tumor cell line, LNCAP (from ATCC (Rockville, Md.)) was propagated under standard conditions using […] medium containing 5% fetal calve serum and 2 mM glutamine. Primary prostate epithelial cell cultures (PrEC) derived from normal prostate (from Clonetics Inc. (San Diego, Calif.)) were grown under the same conditions as the tumor cell line except a serum-free medium optimized for the growth of such cultures was used (Clonetics Inc). For the experiments, LNCaP or PrEC cells were seeded in 96 well plates at a density of 10,000 cells per well. After 24 hours, the cells were treated with either vehicle (0.1% DMSO) or 50 μM Compound I (freebase) solubilized in DMSO. After various drug treatment times (4, 24, 48, 72, or 99 hours) the cells were lysed and processed for measurement of histone-associated DNA as an indicator of apoptotic cell death (see, Piazza et al., Cancer Research 57: 2452-2459, 1997).
(§3) This is in marked contrast to conventional chemotherapeutics that induce apoptosis or necrosis in rapidly growing normal and neoplastic cells alike.

Data set [4] deals with aberrant crypt foci (AOM-induced carcinogenesis). Put plainly: Azoxymethane-induced aberrant crypt foci (ACF) model in rats. In kind it is in vivo, male Fisher 344 rats. As to conditions: for Mean ACF/colon (+SE): free base, 5 weeks. On the procedure:
The growth inhibition IC50 value obtained for Compound I was 0.7 μM in the SW-480 cell line. […] This established rodent model of azoxymethane (“AOM”)-induced carcinogenesis was used to assess the effects of Compound I (free base and salt) on colon cancer development in vivo. ACF are precursors to colonic tumors, and ACF inhibition is predictive of chemo-preventive efficacy.
In the rats in this experiment, ACF initiation was achieved by two consecutive weekly injections of the carcinogen. Compound I was administered one week prior to ACF initiation and for the duration of the experiment. ACFs were scored after 5 weeks of treatment. Compound I was administered orally to male Fisher 344 rats in the rat chow. Daily food consumption (mg/kg body weight) varied over the course of the study, and therefore Compound I dose was expressed a grams per kg of diet to provide a basis of comparison between doses. […] The experimental groups gained less weight than the controls, which was indicative of bloavailability. However, the weight differences were less than 10% and not considered to affect ACF formation.
The free base of Compound I inhibited ACF formation as measured by a reduction of crypts per colon. With the exception of the low dose group (only 0.5 g/kg diet), the differences between treatment and control groups were substantial, and statistically significant in the case of the 1.0 and 2.0 g/kg diet group.

The conditions of data set [5]: dog, in vivo.
The test system of data set [6] is PrEC primary prostate epithelial cells derived from normal prostate. Put plainly: Histone-associated DNA fragmentation in PrEC cells. In kind it is cell-based. The settings on record: 50 μM, up to 4 days. On the procedure: as §2, §3
Another data set concerns NCI-H322M. Kind of data set: Growth inhibition, neutral red assay, NCI-H322M. Type of data set: cell-based, human. The settings on record: free base, five days. Here is the method: as §1
In a further data set the test system is MDA-MB-231. Put plainly: Growth inhibition, neutral red assay, MDA-MB-231. Type of data set: cell-based, human. The settings on record: free base, five days. On the procedure:
as §1

For data set [7] the following is noted: rat, in vivo.

SMILES strings stand for the structures. Where a name gives a salt, the structure may show the parent alone. Read-outs that look alike come from different tables or passages of the source.

In the case of `CC1=C(CC(=O)NCc2ccccc2)c2cc(F)ccc2/C1=C\c1ccncc1` [Compound I, (Z)-5-fluoro-2-methyl-(4-pyridylidene)-3-(N-benzyl)indenylacetamide hydrochloride], the “toxicity findings” value in data set [1] (50 mg/kg/day) is “no observable signs of toxicity”; in [1] (500 mg/kg/day), “an increase in absolute and relative liver weights in female rats”; in data set [1] (2000 mg/kg/day), “labored breathing and/or abnormal respiratory sounds, decreased weights gains and food consumption in male rats, and increased liver weights in female rats”; in [7] (ip, 1000 mg/kg), “reduced body weight gain, with mesenteric adhesions seen in some animals”. The “GI90 μM PC-3” value in the data set on PC-3 came to 82.5 µM. Moreover, the “organ weights” value in the data set “28-day study in rats” (28 days, 2000 mg/kg/day) was “statistically significant increase in liver weights”. In addition, the “clinical observations” value in the data set “28-day study in rats” (28 days, 50, 500 and 2000 mg/kg/day) is “no abnormal clinical observations”. For the same compound, in data set [2], the “side effects” value was “no significant side effects at any dose”. Also, the “histone-associated fragmented DNA” value in [3] is “significant increase in fragmented DNA”. Besides, the “Mean ACF/colon (+SE)” value in data set [4] (0.5 g/kg diet) turned out to be 149 ± 14 ACF/colon; in data set [4] (1 g/kg diet) it was 111 ± 9 ACF/colon; in data set [4] (1.5 g/kg diet), 132 ± 4 ACF/colon; in data set [4] (2.0 g/kg diet) it was 107 ± 15 ACF/colon. Also, the “body weight difference versus controls” value in data set [4] (rats, compound in chow) is “less than 10%”. In addition, the “signs of toxicity” value in data set [5] (1000 mg/kg) is listed as “no signs of toxicity”. In addition, the “drug-related effects” value in data set [5] (1000 mg/kg/day) was “At no time in either dosing phase were any obvious signs of drug-related effects observed”. Also, the “DNA fragmentation” value in data set [6] is listed as “did not affect DNA fragmentation”. Moreover, the “GI90 μM NCI-H322M” value in the data set on NCI-H322M was 13.2 µM. In addition, the “GI90 μM MDA-MB-231” value in the data set on MDA-MB-231 came out at 77.6 µM. In addition, the “body weight gain” value in data set [7] (po, 4000 mg/kg) was “body weight gains were slightly reduced”.
